Measurements reported in paper PMC4856055 (Journal of medicinal chemistry, 2015).
Values joined by “and” are separate entries in the source; they are usually repeats but may differ in a detail not shown here. Equal entries are not always repeated. Where two headings read alike, the source gives them in different places.

Experiments:
[1] = tested on: PSMA+ PC3 PIP and PSMA– PC3 flu xenografts; type: in vivo, mice; conditions: for PIP:blood ratio / PIP:flu ratio / PIP:kidney ratio / PIP:muscle ratio / biodistribution, PC-3 PIP tumor / biodistribution, PC-3 flu tumor / biodistribution, bladder / biodistribution, blood / biodistribution, bone / biodistribution, fat / biodistribution, heart / biodistribution, kidney / biodistribution, large intestine / biodistribution, liver / biodistribution, lung / biodistribution, muscle / biodistribution, pancreas / biodistribution, small intestine / biodistribution, spleen / biodistribution, stomach: tumor bearing mice
[2] = tested on: PSMA+ PC3 PIP and PSMA– PC3 flu tumor xenografts; assay: Small animal PET or PET/CT imaging of tumor bearing mice; type: in vivo
PSMA = PSMA (Homo sapiens, UniProt Q04609); conditions: ref 13d; cited from earlier work
Sequence of PSMA (Q04609 whole entry): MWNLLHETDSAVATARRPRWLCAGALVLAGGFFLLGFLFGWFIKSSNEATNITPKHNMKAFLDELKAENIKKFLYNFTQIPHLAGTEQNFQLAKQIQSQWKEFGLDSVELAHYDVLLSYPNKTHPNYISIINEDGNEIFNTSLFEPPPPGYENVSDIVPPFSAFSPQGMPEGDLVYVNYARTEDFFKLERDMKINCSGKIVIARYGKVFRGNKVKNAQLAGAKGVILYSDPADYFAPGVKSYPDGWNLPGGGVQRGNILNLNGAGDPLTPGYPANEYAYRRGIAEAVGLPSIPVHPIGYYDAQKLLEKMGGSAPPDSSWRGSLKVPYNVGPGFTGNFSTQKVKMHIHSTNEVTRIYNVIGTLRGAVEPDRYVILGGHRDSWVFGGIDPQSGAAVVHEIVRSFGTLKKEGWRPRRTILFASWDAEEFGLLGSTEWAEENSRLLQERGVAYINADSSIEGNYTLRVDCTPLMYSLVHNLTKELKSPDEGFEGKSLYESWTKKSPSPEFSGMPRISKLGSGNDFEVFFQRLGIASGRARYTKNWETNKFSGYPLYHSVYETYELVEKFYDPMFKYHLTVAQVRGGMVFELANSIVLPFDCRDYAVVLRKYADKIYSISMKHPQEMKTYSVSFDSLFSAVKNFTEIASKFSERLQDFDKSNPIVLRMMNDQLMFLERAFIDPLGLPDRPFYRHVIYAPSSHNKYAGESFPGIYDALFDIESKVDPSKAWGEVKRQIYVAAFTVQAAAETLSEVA

For O=C(O)CCC(OC(=O)NC(CCCCNC(=O)c1ccc(I)cc1[18F])C(=O)O)C(=O)O (stereo not drawn) [[^18F]24, 4-iodo-2-[^18F]fluorobenzoyllysine OPA carbamate], the “PIP:blood ratio” value ([1]; 0.5 h postinjection) was 5.6, the “PIP:flu ratio” value ([1]; 0.5 h postinjection) was 9.1 and the “PIP:kidney ratio” value ([1]; 0.5 h postinjection) was 0.5. The “PIP:muscle ratio” value ([1]; 0.5 h postinjection) was 47 and 46.6, the “biodistribution, PC-3 PIP tumor” value ([1]; 0.5 h postinjection) was 45 % ID/g and 44.7 ± 0.62 % ID/g and the “biodistribution, PC-3 flu tumor” value ([1]; 0.5 h postinjection) was 4.91 ± 1.10 % ID/g. The “biodistribution, bladder” value ([1]; 0.5 h postinjection) was 3.89 ± 0.40 % ID/g, the “biodistribution, blood” value ([1]; 0.5 h postinjection) was 7.94 ± 0.99 % ID/g and the “biodistribution, bone” value ([1]; 0.5 h postinjection) was 1.52 ± 0.19 % ID/g. For the same molecule, the “biodistribution, fat” value ([1]; 0.5 h postinjection) was 1.65 ± 0.67 % ID/g, the “biodistribution, heart” value ([1]; 0.5 h postinjection) was 2.27 ± 0.32 % ID/g and the “biodistribution, kidney” value ([1]; 0.5 h postinjection) was 94.4 ± 8.22 % ID/g. The “biodistribution, large intestine” value ([1]; 0.5 h postinjection) was 1.83 ± 0.16 % ID/g, the “biodistribution, liver” value ([1]; 0.5 h postinjection) was 16.6 ± 1.61 % ID/g and the “biodistribution, lung” value ([1]; 0.5 h postinjection) was 5.13 ± 0.29 % ID/g. For the same molecule, the “biodistribution, muscle” value ([1]; 0.5 h postinjection) was 0.96 ± 0.21 % ID/g, the “biodistribution, pancreas” value ([1]; 0.5 h postinjection) was 1.78 ± 0.15 % ID/g and the “biodistribution, small intestine” value ([1]; 0.5 h postinjection) was 1.37 ± 0.06 % ID/g. The “biodistribution, spleen” value ([1]; 0.5 h postinjection) was 14.6 ± 4.41 % ID/g, the “biodistribution, stomach” value ([1]; 0.5 h postinjection) was 1.80 ± 0.08 % ID/g and the “PIP:blood ratio” value ([1]; 1 h postinjection) was 20 and 19.7. The “PIP:flu ratio” value ([1]; 1 h postinjection) was 25.4, the “PIP:kidney ratio” value ([1]; 1 h postinjection) was 0.5 and the “PIP:muscle ratio” value ([1]; 1 h postinjection) was 100 and 100.2. The “biodistribution, PC-3 PIP tumor” value ([1]; 1 h postinjection) was 57.1 ± 19.55 % ID/g, the “biodistribution, PC-3 flu tumor” value ([1]; 1 h postinjection) was 2.25 ± 1.62 % ID/g and the “biodistribution, bladder” value ([1]; 1 h postinjection) was 2.19 ± 0.22 % ID/g. For the same molecule, the “biodistribution, blood” value ([1]; 1 h postinjection) was 2.90 ± 1.98 % ID/g, the “biodistribution, bone” value ([1]; 1 h postinjection) was 0.78 ± 0.14 % ID/g and the “biodistribution, fat” value ([1]; 1 h postinjection) was 0.88 ± 0.68 % ID/g. For the same molecule, the “biodistribution, heart” value ([1]; 1 h postinjection) was 1.23 ± 0.22 % ID/g, the “biodistribution, kidney” value ([1]; 1 h postinjection) was 122 ± 21.9 % ID/g and the “biodistribution, large intestine” value ([1]; 1 h postinjection) was 0.78 ± 0.13 % ID/g. The “biodistribution, liver” value ([1]; 1 h postinjection) was 15.5 ± 2.00 % ID/g, the “biodistribution, lung” value ([1]; 1 h postinjection) was 3.31 ± 0.41 % ID/g and the “biodistribution, muscle” value ([1]; 1 h postinjection) was 0.57 ± 0.06 % ID/g. The “biodistribution, pancreas” value ([1]; 1 h postinjection) was 1.23 ± 0.29 % ID/g, the “biodistribution, small intestine” value ([1]; 1 h postinjection) was 1.83 ± 1.12 % ID/g and the “biodistribution, spleen” value ([1]; 1 h postinjection) was 7.81 ± 4.22 % ID/g. The “biodistribution, stomach” value ([1]; 1 h postinjection) was 0.99 ± 0.17 % ID/g, the “PIP:blood ratio” value ([1]; 2 h postinjection) was 66 and the “PIP:flu ratio” value ([1]; 2 h postinjection) was 71.1. For the same molecule, the “PIP:kidney ratio” value ([1]; 2 h postinjection) was 0.7, the “PIP:muscle ratio” value ([1]; 2 h postinjection) was 250 and 250.5 and the “biodistribution, PC-3 PIP tumor” value ([1]; 2 h postinjection) was 85.2 ± 5.44 % ID/g. The “biodistribution, PC-3 flu tumor” value ([1]; 2 h postinjection) was 1.20 ± 0.31 % ID/g, the “biodistribution, bladder” value ([1]; 2 h postinjection) was 7.48 ± 0.68 % ID/g and the “biodistribution, blood” value ([1]; 2 h postinjection) was 1.29 ± 0.87 % ID/g. The “biodistribution, bone” value ([1]; 2 h postinjection) was 0.36 ± 0.02 % ID/g, the “biodistribution, fat” value ([1]; 2 h postinjection) was 1.12 ± 0.43 % ID/g and the “biodistribution, heart” value ([1]; 2 h postinjection) was 0.57 ± 0.09 % ID/g. For the same molecule, the “biodistribution, kidney” value ([1]; 2 h postinjection) was 115 ± 13.2 % ID/g, the “biodistribution, large intestine” value ([1]; 2 h postinjection) was 0.55 ± 0.01 % ID/g and the “biodistribution, liver” value ([1]; 2 h postinjection) was 8.99 ± 0.55 % ID/g. For the same molecule, the “biodistribution, lung” value ([1]; 2 h postinjection) was 1.91 ± 0.29 % ID/g, the “biodistribution, muscle” value ([1]; 2 h postinjection) was 0.34 ± 0.07 % ID/g and the “biodistribution, pancreas” value ([1]; 2 h postinjection) was 0.92 ± 0.40 % ID/g. The “biodistribution, small intestine” value ([1]; 2 h postinjection) was 1.19 ± 0.61 % ID/g, the “biodistribution, spleen” value ([1]; 2 h postinjection) was 6.78 ± 1.25 % ID/g and the “biodistribution, stomach” value ([1]; 2 h postinjection) was 0.51 ± 0.07 % ID/g. For the same molecule, the “PIP:blood ratio” value ([1]; 4 h postinjection) was 156 and 155.8, the “PIP:flu ratio” value ([1]; 4 h postinjection) was 231.1 and the “PIP:kidney ratio” value ([1]; 4 h postinjection) was 1.3. For the same molecule, the “PIP:muscle ratio” value ([1]; 4 h postinjection) was 743, the “biodistribution, PC-3 PIP tumor” value ([1]; 4 h postinjection) was 97 % ID/g and 96.6 ± 18.7 % ID/g and the “biodistribution, PC-3 flu tumor” value ([1]; 4 h postinjection) was 0.42 ± 0.07 % ID/g. For the same molecule, the “biodistribution, bladder” value ([1]; 4 h postinjection) was 2.03 ± 1.09 % ID/g, the “biodistribution, blood” value ([1]; 4 h postinjection) was 0.62 ± 0.10 % ID/g and the “biodistribution, bone” value ([1]; 4 h postinjection) was 0.18 ± 0.04 % ID/g. For the same molecule, the “biodistribution, fat” value ([1]; 4 h postinjection) was 0.58 ± 0.17 % ID/g, the “biodistribution, heart” value ([1]; 4 h postinjection) was 0.24 ± 0.04 % ID/g and the “biodistribution, kidney” value ([1]; 4 h postinjection) was 74.4 ± 13.8 % ID/g. For the same molecule, the “biodistribution, large intestine” value ([1]; 4 h postinjection) was 0.96 ± 0.25 % ID/g, the “biodistribution, liver” value ([1]; 4 h postinjection) was 2.77 ± 0.49 % ID/g and the “biodistribution, lung” value ([1]; 4 h postinjection) was 0.94 ± 0.06 % ID/g. For the same molecule, the “biodistribution, muscle” value ([1]; 4 h postinjection) was 0.13 ± 0.04 % ID/g, the “biodistribution, pancreas” value ([1]; 4 h postinjection) was 0.26 ± 0.06 % ID/g and the “biodistribution, small intestine” value ([1]; 4 h postinjection) was 0.24 ± 0.09 % ID/g. For the same molecule, the “biodistribution, spleen” value ([1]; 4 h postinjection) was 3.49 ± 0.86 % ID/g, the “biodistribution, stomach” value ([1]; 4 h postinjection) was 0.19 ± 0.03 % ID/g and the tumor/kidney ratio ([1]; at 2–4 h) was “approximately 1”. For the same molecule, the “PSMA+ PC3 PIP tumor uptake on small animal PET imaging” value ([2]; male SCID mice with PSMA+ PC3 PIP and PSMA– PC3 flu xenografts) was “Intense and selective radiotracer uptake” and the “uptake in salivary glands on imaging” value ([2]; mouse, in vivo) was “Neither [^18F]23 nor [^18F]24 demonstrated any uptake in salivary glands”.
For O=C(O)CC[C@H](NC(=O)N[C@@H](CCCCNC(=O)c1ccc(F)cc1)C(=O)O)C(=O)O [compound 9], the Ki (PSMA) is listed as 0.25 nM.
